Consider six compounds from publication PMC3199943, “Screening the MayBridge Rule of 3 Fragment Library for Compounds That Interact with the Trypanosoma brucei myo-Inositol-3-Phosphate Synthase and/or Show Trypanocidal Activity” (Molecular Biology International, 2011).

For one assay, the target named is T1, TbINO1 (Trypanosoma brucei brucei, UniProt Q5QQ46).
T1 sequence (Q5QQ46 1-528): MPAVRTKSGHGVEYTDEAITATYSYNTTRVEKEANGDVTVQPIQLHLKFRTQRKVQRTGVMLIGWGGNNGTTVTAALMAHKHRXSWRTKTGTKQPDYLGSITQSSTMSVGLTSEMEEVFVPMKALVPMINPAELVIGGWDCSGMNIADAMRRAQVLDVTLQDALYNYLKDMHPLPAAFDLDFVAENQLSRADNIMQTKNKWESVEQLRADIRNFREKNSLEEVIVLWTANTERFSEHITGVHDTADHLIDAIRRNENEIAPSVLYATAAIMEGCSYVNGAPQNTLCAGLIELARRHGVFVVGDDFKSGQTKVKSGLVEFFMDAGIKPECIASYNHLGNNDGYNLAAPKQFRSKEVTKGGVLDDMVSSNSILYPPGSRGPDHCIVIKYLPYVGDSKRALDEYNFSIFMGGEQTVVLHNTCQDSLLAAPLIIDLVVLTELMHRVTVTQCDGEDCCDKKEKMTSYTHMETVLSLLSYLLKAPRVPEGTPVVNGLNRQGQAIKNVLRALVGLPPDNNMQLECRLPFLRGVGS
Nature of the assay: biochemical. The class given is binding. The conditions noted are these: for ΔTm at 1000 µM: read-out: Tb Ino1 Tm Shift [˚C].

A further assay relates to HeLa cells. Nature of the assay: cells. The note with it: for viability at 500 µM: Homo sapiens, HeLa, 65 h, read-out: HeLa Cells Alamar Blue. Put shortly:
(§1)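 Alamar Blue read-out after a 5 h dye incubation that followed ~65 h compound exposure. Cells: HeLa or A549, 2 × 10^4/well, DMEM + 10% FCS + 2 mM L-Glutamine.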
(In general: Resazurin is reduced to fluorescent resorufin, in cell work by metabolically active cells.)

Another assay deals with A549 cells. Nature of the assay: Cytotoxicity against A549 cells, Alamar Blue. The class given is cell-based. The note with it: Supplementary Table 1, compound 0.5 mM, percentage of controls (n=1); for viability at 500 µM: Homo sapiens, A549, 65 h. Put shortly:
as §1

Setting [1] is: Supplementary Table 1, compound 1mM, mean ± SD from Boltzman curve fitting.

SMILES strings stand for the structures. Read-outs that look alike come from different tables or passages of the source.

As to `CNc1ccc(F)cc1F` [compound 144, N1‐methyl‐2,4‐difluoroaniline], the ΔTm at 1000 µM at TbINO1 was 1.09 ± 0.06 °C. For the same compound, the viability at 500 µM in the assay on HeLa cells turned out to be 79.3 ± 10.3%; in the assay on A549 cells, 110%.
`Nc1ccc2oc3c(c2c1)CCCC3` [compound 516, 6,7,8,9‐tetrahydrodibenzo[b,d]furan‐2‐amine]: the “Tb Ino1 Tm Shift [˚C]” value at TbINO1 (setting [1]) is 0.2 ± 0.07 °C. In addition, the “HeLa Cells Alamar Blue” value in the assay with HeLa cells (Supplementary Table 1, compound 0.5 mM, percentage of controls, mean ± SD (n=3) or SE (n=2)) is 108 ± 5.2 percentage of controls. In addition, the “A549 Cells Alamar Blue” value with A549 cells is on record as 68.2 percentage of controls.
For the compound `O=C(O)c1cccc(-c2ccccn2)c1` [compound 611, 3‐pyrid‐2‐ylbenzoic acid], at TbINO1, the ΔTm at 1000 µM was 0.19 ± 0.07 °C. Moreover, the viability at 500 µM is 87 ± 12.6% in the assay on HeLa cells and 73.9% in the assay on A549 cells.
For `Cc1[nH]c2ccc(C(=O)O)cc2c1C` [compound 537, 2,3‐dimethyl‐1H‐indole‐5‐carboxylic acid], in that order: 0.7 ± 0.08 °C, 89.3 ± 2.4% and 74.5%.
In the case of `Cc1cccc(C)c1C#N` [compound 94, 2,6‐dimethylbenzonitrile], the ΔTm at 1000 µM at TbINO1 (setting [1]) was 1.3 ± 0.06 °C. In addition, the figures for the viability at 500 µM in the assay on HeLa cells and with A549 cells were 96.4 ± 13.9% and 114%, respectively.
As for `OCc1cc2ccccc2s1` [compound 301, 1‐benzothiophen‐2‐ylmethanol], the ΔTm at 1000 µM at TbINO1 came out at 0.01 ± 0.05 °C. Further, the viability at 500 µM in the assay with HeLa cells amounted to 90.7 ± 4.5%; in the assay with A549 cells it was 71%.
